In assay [1] the target is T1, P2X purinoceptor 2 (Homo sapiens) (UniProt Q9UBL9).
T1 sequence (whole entry): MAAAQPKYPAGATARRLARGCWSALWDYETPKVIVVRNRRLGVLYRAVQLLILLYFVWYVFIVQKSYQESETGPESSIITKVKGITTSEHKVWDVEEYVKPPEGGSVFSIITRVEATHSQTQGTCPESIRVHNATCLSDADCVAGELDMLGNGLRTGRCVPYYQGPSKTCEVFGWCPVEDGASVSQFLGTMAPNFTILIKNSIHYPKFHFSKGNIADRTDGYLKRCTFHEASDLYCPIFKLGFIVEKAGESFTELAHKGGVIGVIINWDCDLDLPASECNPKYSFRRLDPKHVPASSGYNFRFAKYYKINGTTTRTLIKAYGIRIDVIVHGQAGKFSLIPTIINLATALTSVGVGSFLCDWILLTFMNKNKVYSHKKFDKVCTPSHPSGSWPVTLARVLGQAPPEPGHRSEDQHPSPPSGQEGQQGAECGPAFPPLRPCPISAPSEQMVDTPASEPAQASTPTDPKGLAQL
Put plainly: Antagonist activity at human P2X2 receptor expressed in human 1321N1 cells assessed as inhibition of ATP-induced cytosolic calcium influx at 100 uM preincubated for 30 mins followed by ATP addition by Fluo-4 AM dye-based fluorescence assay. The format is cell-based.

In assay [2] the target is T2, P2X purinoceptor 4 (Rattus norvegicus, UniProt P51577).
T2 sequence (P51577 whole entry): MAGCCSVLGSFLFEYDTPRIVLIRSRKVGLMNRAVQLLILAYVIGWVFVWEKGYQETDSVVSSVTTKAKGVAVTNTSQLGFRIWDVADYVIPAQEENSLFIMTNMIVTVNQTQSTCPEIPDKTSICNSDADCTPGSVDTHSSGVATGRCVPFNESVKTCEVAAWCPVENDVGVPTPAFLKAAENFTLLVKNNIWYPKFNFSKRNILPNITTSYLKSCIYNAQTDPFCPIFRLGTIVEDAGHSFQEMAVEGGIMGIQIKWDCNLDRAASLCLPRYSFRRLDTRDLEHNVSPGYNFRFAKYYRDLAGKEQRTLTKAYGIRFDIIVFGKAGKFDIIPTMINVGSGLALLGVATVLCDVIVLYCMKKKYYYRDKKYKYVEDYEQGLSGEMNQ
The experiment in a line: Antagonist activity at rat P2X4 receptor assessed as inhibition of ATP-induced calcium influx preincubated for 30 mins followed by ATP addition by Fluo-4 AM dye-based fluorescence assay.

A further assay addresses T3, P2X purinoceptor 3 (Homo sapiens, UniProt P56373).
T3 sequence (P56373 whole entry): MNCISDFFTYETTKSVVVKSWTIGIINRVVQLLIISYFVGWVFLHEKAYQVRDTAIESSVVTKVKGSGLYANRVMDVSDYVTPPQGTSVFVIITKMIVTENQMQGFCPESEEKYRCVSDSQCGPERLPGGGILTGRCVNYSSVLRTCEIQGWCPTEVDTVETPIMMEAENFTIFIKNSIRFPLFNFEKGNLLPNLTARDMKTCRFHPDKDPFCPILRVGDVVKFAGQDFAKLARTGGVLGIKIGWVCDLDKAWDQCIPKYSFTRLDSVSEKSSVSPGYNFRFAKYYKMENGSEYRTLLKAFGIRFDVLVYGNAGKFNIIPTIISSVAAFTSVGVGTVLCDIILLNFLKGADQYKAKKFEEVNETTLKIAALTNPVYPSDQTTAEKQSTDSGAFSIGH
The experiment in a line: Antagonist activity at human P2X3 receptor expressed in human 1321N1 cells assessed as inhibition of ATP-induced cytosolic calcium influx preincubated for 30 mins followed by ATP addition by Fluo-4 AM dye-based fluorescence assay. It is filed as cell-based.

Another assay addresses T4, P2X purinoceptor 1 (Homo sapiens, UniProt P51575).
T4 sequence (P51575 whole entry): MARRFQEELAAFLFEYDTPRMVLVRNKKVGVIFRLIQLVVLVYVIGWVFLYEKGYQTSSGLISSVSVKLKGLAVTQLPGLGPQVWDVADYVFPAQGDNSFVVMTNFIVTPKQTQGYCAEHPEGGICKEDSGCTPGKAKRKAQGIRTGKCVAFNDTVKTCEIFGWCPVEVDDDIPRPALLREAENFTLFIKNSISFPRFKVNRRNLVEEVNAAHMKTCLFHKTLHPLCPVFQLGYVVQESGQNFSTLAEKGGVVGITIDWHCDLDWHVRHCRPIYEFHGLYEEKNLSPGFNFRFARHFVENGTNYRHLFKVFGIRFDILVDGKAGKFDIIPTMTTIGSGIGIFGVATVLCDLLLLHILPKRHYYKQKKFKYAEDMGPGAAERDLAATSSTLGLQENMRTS
The experiment in a line: Antagonist activity at human P2X1 receptor expressed in human 1321N1 cells assessed as inhibition of ATP-induced cytosolic calcium influx preincubated for 30 mins followed by ATP addition by Fluo-4 AM dye-based fluorescence assay. The format is cell-based.

For assay [3], the target named is T5, P2X purinoceptor 4 (Mus musculus, UniProt Q9JJX6).
T5 sequence (Q9JJX6 whole entry): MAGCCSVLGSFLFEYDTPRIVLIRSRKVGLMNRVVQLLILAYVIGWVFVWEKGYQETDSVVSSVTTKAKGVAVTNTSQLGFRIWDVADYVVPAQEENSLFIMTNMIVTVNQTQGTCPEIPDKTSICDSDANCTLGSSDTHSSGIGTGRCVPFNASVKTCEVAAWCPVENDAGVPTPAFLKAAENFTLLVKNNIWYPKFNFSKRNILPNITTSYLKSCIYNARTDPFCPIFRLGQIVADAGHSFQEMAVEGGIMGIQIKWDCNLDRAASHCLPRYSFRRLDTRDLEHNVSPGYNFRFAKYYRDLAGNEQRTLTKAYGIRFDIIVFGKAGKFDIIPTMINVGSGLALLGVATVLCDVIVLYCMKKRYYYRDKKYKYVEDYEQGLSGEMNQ
Put plainly: Antagonist activity at mouse P2X4 receptor assessed as inhibition of ATP-induced cytosolic calcium influx preincubated for 30 mins followed by ATP addition by Fluo-4 AM dye-based fluorescence assay.

The values that follow come from ChEMBL document CHEMBL3102848, “Carbamazepine derivatives with P2X4 receptor-blocking activity” (Bioorg Med Chem, 2014).

One may read the inhibition as the change of the read-out against control, counted positive when it falls. Broadly, the IC50 is the concentration needed to halve the response being measured. As to `O=C(N1CCCC1)N1c2ccccc2C=Cc2ccccc21`, the inhibition in assay [1] was determined as 6%. For the same compound, the 50% inhibitory concentration (IC50) is 69.3 µM at P2X purinoceptor 4 [2], 29.8 µM at P2X purinoceptor 3, 68.8 µM at P2X purinoceptor 1 and 123 µM at P2X purinoceptor 4 [3].

Turning to `O=C(N1CCCCC1)N1c2ccccc2C=Cc2ccccc21`, the inhibition in assay [1] turned out to be 4%. Also, the half-maximal inhibitory concentration (IC50) came out at 95.8 µM on P2X purinoceptor 4 [2], 7.98 µM on P2X purinoceptor 3, 20.7 µM at P2X purinoceptor 1 and 102 µM at P2X purinoceptor 4 [3].

Turning to `CCCN(CCC)C(=O)N1c2ccccc2C=Cc2ccccc21`, the inhibition in assay [1] is -2%. Further, the half-inhibitory concentration (IC50) on P2X purinoceptor 4 [2] was 35.9 µM; at P2X purinoceptor 3 it was 15.2 µM; on P2X purinoceptor 1, 4.55 µM; on P2X purinoceptor 4 [3] it was over 100 µM.

Take `CC(C)N(C(=O)N1c2ccccc2C=Cc2ccccc21)C(C)C`: in assay [1], the inhibition is 8%. The IC50 is 54.6 µM at P2X purinoceptor 4 [2], 7.18 µM at P2X purinoceptor 3, 5.32 µM at P2X purinoceptor 1 and 14.9 µM at P2X purinoceptor 4 [3].

`O=C(NC1CCCCC1)N1c2ccccc2C=Cc2ccccc21`: the inhibition in assay [1] was found to be 11%. In addition, the half-maximal inhibitory concentration (IC50) on P2X purinoceptor 4 [2] worked out at 109 µM; on P2X purinoceptor 3, 28 µM; at P2X purinoceptor 1, 69.6 µM; at P2X purinoceptor 4 [3] it was 98.4 µM.

`CCN(CC)C(=O)N1c2ccccc2C=Cc2ccccc21`: in assay [1], the inhibition worked out at 1%. Besides, the IC50 was 43 µM at P2X purinoceptor 4 [2], 14.2 µM on P2X purinoceptor 3, 25.2 µM at P2X purinoceptor 1 and over 100 µM on P2X purinoceptor 4 [3].
